We go through seven compounds from ChEMBL document CHEMBL1201862, “PubChem BioAssay data set” (2004).

The structures appear in SMILES notation.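 Tested at 5 concentrations; 48 h exposure; 96-well plates; endpoints linearly interpolated, else capped at highest concentration. GI50 = concentration required for 50% inhibition of growth.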 Active and inactive are the calls of the source. No stated cut-off is given here; in the data, active = GI50 up to about 1.1 µM and inactive = higher. Where only a bound is given, the exact number is not on record here.

Among the test systems are Malme-3M; DU-145; SK-MEL-5; HT-29; SF-268; SR; MDA-MB-231; CCRF-CEM; SK-MEL-28; LOX IMVI; HOP-62; SW-620; RPMI-8226; HOP-92; NCI-H460; KM12; MDA-N; CAKI-1; EKVX; UACC-62.
Assay in all cases: inhibition of tumour cell growth, NCI panel, 48 h

For the compound `CN(CC(=O)O)Cc1c[nH]c2ccccc12`, the GI50 in the assay on Malme-3M, in the assay with DU-145, in the assay with SK-MEL-5, with HT-29, in the assay with SF-268 and in the assay with SR was > 100 µM (inactive) throughout. Also, the GI50 in the assay with MDA-MB-231, in the assay on CCRF-CEM, with SK-MEL-28, with LOX IMVI, in the assay with HOP-62 and in the assay on SW-620 was > 100 µM (inactive) throughout. Further, the GI50 with RPMI-8226, in the assay with HOP-92, in the assay with NCI-H460, with KM12, in the assay with MDA-N and in the assay on CAKI-1 was > 100 µM (inactive) in each case. Besides, the GI50 in the assay on EKVX and with UACC-62 was > 100 µM (inactive) each time.

Turning to `CC(=O)c1c(SCCN2CCOCC2)n(-c2ccccc2)c(=S)n(-c2ccccc2)c1=O`, the GI50 is 28.2 µM (inactive) in the assay with Malme-3M; 8.99 µM (inactive) with DU-145; 17.3 µM (inactive) in the assay with SK-MEL-5; 23.8 µM (inactive) in the assay with HT-29; 20.2 µM (inactive) in the assay on SF-268; 28.3 µM (inactive) in the assay on SR. Also, the GI50 was 19.1 µM (inactive) in the assay on MDA-MB-231; 10.8 µM (inactive) in the assay on CCRF-CEM; 20.9 µM (inactive) with SK-MEL-28; 8.39 µM (inactive) in the assay on LOX IMVI; 26.2 µM (inactive) with HOP-62; 20.7 µM (inactive) in the assay on SW-620. Further, the GI50 was 8.38 µM (inactive) with RPMI-8226; 15.3 µM (inactive) with HOP-92; 24.4 µM (inactive) with NCI-H460; > 39.7 µM (inactive) with KM12; 18.8 µM (inactive) in the assay with MDA-N; 24.3 µM (inactive) in the assay with CAKI-1. Besides, the GI50 in the assay on EKVX is 48.2 µM (inactive); in the assay with UACC-62, 15.5 µM (inactive).

In the case of `CSc1nc(SC)c2c(CO)c(Br)n(Cc3ccccc3)c2n1`, the GI50 in the assay with Malme-3M was 52.4 µM (inactive); with DU-145, 25.9 µM (inactive); in the assay with SK-MEL-5 it was 48.9 µM (inactive); with HT-29, 33.8 µM (inactive); with SF-268, 16.3 µM (inactive); in the assay with SR, > 100 µM (inactive). In addition, the GI50 with MDA-MB-231 was 17.7 µM (inactive); in the assay on CCRF-CEM, > 100 µM (inactive); in the assay with SK-MEL-28, 47.9 µM (inactive); in the assay on LOX IMVI it was 25.3 µM (inactive); in the assay with HOP-62 it was 27 µM (inactive); in the assay on SW-620, > 100 µM (inactive). The GI50 with RPMI-8226 is 92.9 µM (inactive); in the assay on HOP-92 it was 17.2 µM (inactive); in the assay on NCI-H460, 15.7 µM (inactive); in the assay with KM12, 70 µM (inactive); in the assay with MDA-N, > 100 µM (inactive); in the assay with CAKI-1, 10 µM (inactive). Further, the GI50 in the assay on EKVX was 29.2 µM (inactive); in the assay with UACC-62, 17.5 µM (inactive).

For the compound `CC(C)(CO)CNc1nc(N)nc(Cl)c1C=O`, the GI50 in the assay with Malme-3M is 39.7 µM (inactive); with DU-145, 94 µM (inactive); with SK-MEL-5, 30.7 µM (inactive); in the assay with HT-29, 45.2 µM (inactive); with SF-268, 14 µM (inactive); in the assay on SR it was 17.5 µM (inactive). The GI50 was 30.1 µM (inactive) in the assay with MDA-MB-231; 20.6 µM (inactive) in the assay with CCRF-CEM; 24.4 µM (inactive) in the assay with SK-MEL-28; 16.4 µM (inactive) in the assay with LOX IMVI; 23.2 µM (inactive) in the assay with HOP-62; 33.5 µM (inactive) in the assay with SW-620. Also, the GI50 was 60.5 µM (inactive) with RPMI-8226; 26.2 µM (inactive) in the assay with HOP-92; 36.4 µM (inactive) with NCI-H460; 90.4 µM (inactive) in the assay with KM12; 25.5 µM (inactive) in the assay with MDA-N; 11.9 µM (inactive) in the assay with CAKI-1. Moreover, the GI50 in the assay with EKVX is 45.9 µM (inactive); in the assay with UACC-62, 12.5 µM (inactive).

With `Cc1cc2c(c(O)c1-c1c(C)cc(O)c3c1C(=O)C=CC3=O)C(=O)C=CC2=O`, the GI50 with Malme-3M is 0.342 µM (active); in the assay with DU-145, 2.19 µM (inactive); in the assay with SK-MEL-5, 4.01 µM (inactive); with HT-29 it was 1.58 µM (inactive); in the assay with SF-268 it was 1.92 µM (inactive); in the assay on SR it was 0.043 µM (active). Further, the GI50 was 2 µM (inactive) with MDA-MB-231; < 0.01 µM (active) in the assay on CCRF-CEM; 0.369 µM (active) in the assay with SK-MEL-28; 1.11 µM (active) in the assay on LOX IMVI; 20.3 µM (inactive) in the assay on HOP-62; 1.59 µM (inactive) in the assay on SW-620. Further, the GI50 with RPMI-8226 was 0.226 µM (active); with HOP-92, 0.413 µM (active); in the assay with NCI-H460 it was 6.43 µM (inactive); with KM12, 10.3 µM (inactive); in the assay on MDA-N, 1.46 µM (inactive); in the assay with CAKI-1 it was 0.631 µM (active). Also, the values for the GI50 in the assay on EKVX and with UACC-62 were 1.59 µM (inactive) and 2.13 µM (inactive), respectively.

On to `CSC1=C(C#N)C(=O)N(c2ccc(C)cc2)C(=O)C1C#N` (stereo not given), for which the GI50 in the assay with Malme-3M, in the assay with DU-145, in the assay on SK-MEL-5, with HT-29, with SF-268 and with SR was > 100 µM (inactive) in each case. The GI50 in the assay on MDA-MB-231, with CCRF-CEM, in the assay with SK-MEL-28, in the assay with LOX IMVI, in the assay with HOP-62 and in the assay on SW-620 was > 100 µM (inactive) each time. Further, the GI50 is > 100 µM (inactive) in the assay on RPMI-8226; 25 µM (inactive) in the assay on HOP-92; > 100 µM (inactive) in the assay on NCI-H460; > 100 µM (inactive) with KM12; > 100 µM (inactive) in the assay with MDA-N; 30.9 µM (inactive) with CAKI-1. In addition, the GI50 with EKVX and in the assay with UACC-62 was > 100 µM (inactive) each time.

As for `COC1=C2CC(C)CC(OC)[C@@H](OC(=O)CCN)[C@H](C)/C=C(\C)C(OC(N)=O)C(OC)/C=C\C=C(/C)C(=O)NC(=CC1=O)C2=O` (stereo not given in full), the GI50 with Malme-3M is 0.735 µM (active); with DU-145, 8.57 µM (inactive); in the assay on SK-MEL-5, 2.92 µM (inactive); in the assay on HT-29, 0.465 µM (active); with SF-268, 9.06 µM (inactive); in the assay with SR it was 1.26 µM (inactive). In addition, the GI50 is 1.99 µM (inactive) in the assay on MDA-MB-231; 0.343 µM (active) in the assay with CCRF-CEM; 0.689 µM (active) in the assay with SK-MEL-28; 0.897 µM (active) in the assay on LOX IMVI; 6.38 µM (inactive) with HOP-62; 0.357 µM (active) in the assay on SW-620. Also, the GI50 is 0.871 µM (active) in the assay with RPMI-8226; 0.697 µM (active) in the assay on HOP-92; 11.1 µM (inactive) in the assay on NCI-H460; 2.64 µM (inactive) in the assay on KM12; 0.78 µM (active) in the assay with MDA-N; 4.6 µM (inactive) in the assay with CAKI-1. Besides, the GI50 in the assay on EKVX is 12 µM (inactive); with UACC-62, 1.47 µM (inactive).
